Where a SMILES comes first, the peptide text is derived from it.

The record followed here is ChEMBL document CHEMBL3351292, “Structure-Based Design and Synthesis of Potent Cyclic Peptides Inhibiting the YAP-TEAD Protein-Protein Interaction” (ACS Med Chem Lett, 2014).

For this assay, the target named is Transcriptional coactivator YAP1/Transcriptional enhancer factor TEF-1 (Homo sapiens) (UniProt P46937+P28347). The assay is described as follows: Inhibition of YAP/ GST-TEAD1 (unknown origin) interaction at 50 uM by surface plasmon resonance assay. Format: protein assay. A general note: In SPR one partner is held on a chip, and binding of the other changes the refractive index at the surface.
Sequence of Transcriptional coactivator YAP1/Transcriptional enhancer factor TEF-1 (Homo sapiens) (P28347 whole entry, looked up): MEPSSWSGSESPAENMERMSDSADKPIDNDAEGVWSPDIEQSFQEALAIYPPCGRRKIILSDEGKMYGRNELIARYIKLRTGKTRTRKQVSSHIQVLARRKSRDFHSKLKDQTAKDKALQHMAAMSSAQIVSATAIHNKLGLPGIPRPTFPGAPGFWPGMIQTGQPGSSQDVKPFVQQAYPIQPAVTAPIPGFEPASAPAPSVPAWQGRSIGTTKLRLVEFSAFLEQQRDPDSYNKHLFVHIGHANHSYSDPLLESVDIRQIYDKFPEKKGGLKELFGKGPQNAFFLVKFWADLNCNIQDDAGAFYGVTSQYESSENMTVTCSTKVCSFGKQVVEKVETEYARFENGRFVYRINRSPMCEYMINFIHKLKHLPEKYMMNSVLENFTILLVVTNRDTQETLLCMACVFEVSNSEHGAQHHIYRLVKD
Sequence of Transcriptional coactivator YAP1/Transcriptional enhancer factor TEF-1 (Homo sapiens) (P46937 whole entry, looked up): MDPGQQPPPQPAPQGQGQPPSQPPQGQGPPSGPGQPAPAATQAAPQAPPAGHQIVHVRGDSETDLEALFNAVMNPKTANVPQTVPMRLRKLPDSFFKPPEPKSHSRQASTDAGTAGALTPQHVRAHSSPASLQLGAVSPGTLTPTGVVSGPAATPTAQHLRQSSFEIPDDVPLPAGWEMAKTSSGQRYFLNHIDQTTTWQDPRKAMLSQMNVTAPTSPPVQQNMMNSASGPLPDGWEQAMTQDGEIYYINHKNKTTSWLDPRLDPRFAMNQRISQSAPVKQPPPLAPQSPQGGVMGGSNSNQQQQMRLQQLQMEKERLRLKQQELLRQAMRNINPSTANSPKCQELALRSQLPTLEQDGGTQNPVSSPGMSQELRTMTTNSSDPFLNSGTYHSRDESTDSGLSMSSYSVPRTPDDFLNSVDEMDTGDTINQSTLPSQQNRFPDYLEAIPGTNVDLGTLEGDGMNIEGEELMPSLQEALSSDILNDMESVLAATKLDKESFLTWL
In general, inhibition refers to the relative decrease from the control value, in per cent. Regarding `CSCC[C@H](NC(=O)[C@@H]1CCCN1C(=O)[C@@H](NC(=O)[C@@H](NC(=O)[C@H](CCC(N)=O)NC(C)=O)[C@@H](C)O)C(C)C)C(=O)N[C@@H](CCCNC(=N)N)C(=O)N[C@@H](CC(C)C)C(=O)N[C@@H](CCCNC(=N)N)C(=O)N[C@@H](CCCCN)C(=O)N[C@@H](CC(C)C)C(=O)N1CCC[C@H]1C(=O)N[C@@H](CC(=O)O)C(=O)N[C@@H](CO)C(=O)N[C@@H](Cc1ccccc1)C(=O)N[C@@H](Cc1ccccc1)C(=O)N[C@@H](CCCCN)C(=O)N1CCC[C@H]1C(=O)N1CCC[C@H]1C(=O)N[C@@H](CCC(=O)O)C(N)=O`, the inhibition amounted to 59%.

Take `CSCC[C@H](NC(=O)[C@@H]1CCCN1C(=O)[C@@H](NC(=O)[C@@H](NC(C)=O)[C@@H](C)O)C(C)C)C(=O)N[C@@H](CCCNC(=N)N)C(=O)N[C@@H](CC(C)C)C(=O)N[C@@H](CCCNC(=N)N)C(=O)N[C@@H](CCCCN)C(=O)N[C@@H](CC(C)C)C(=O)N1CCC[C@H]1C(=O)N[C@@H](CC(=O)O)C(=O)N[C@@H](CO)C(=O)N[C@@H](Cc1ccccc1)C(=O)N[C@@H](Cc1ccccc1)C(=O)N[C@@H](CCCCN)C(=O)N1CCC[C@H]1C(=O)N1CCC[C@H]1C(=O)N[C@@H](CCC(=O)O)C(N)=O`: the inhibition was found to be 60%.

As to `CSCC[C@H](NC(=O)[C@@H]1CCCN1C(=O)[C@@H](NC(=O)[C@H](C)NC(=O)[C@H](CCC(N)=O)NC(=O)[C@@H]1CCCN1C(C)=O)C(C)C)C(=O)N[C@@H](CCCNC(=N)N)C(=O)N[C@@H](CC(C)C)C(=O)N[C@@H](CCCNC(=N)N)C(=O)N[C@@H](CCCCN)C(=O)N[C@@H](CC(C)C)C(=O)N1CCC[C@H]1C(=O)N[C@@H](CC(=O)O)C(=O)N[C@@H](CO)C(=O)N[C@@H](Cc1ccccc1)C(=O)N[C@@H](Cc1ccccc1)C(=O)N[C@@H](CCCCN)C(=O)N1CCC[C@H]1C(=O)N1CCC[C@H]1C(=O)N[C@@H](CCC(=O)O)C(N)=O`, the inhibition turned out to be 52%.

With `CSCC[C@H](NC(C)=O)C(=O)N[C@@H](CCCNC(=N)N)C(=O)N[C@@H](CC(C)C)C(=O)N[C@@H](CCCNC(=N)N)C(=O)N[C@@H](CCCCN)C(=O)N[C@@H](CC(C)C)C(=O)N1CCC[C@H]1C(=O)N[C@@H](CC(=O)O)C(=O)N[C@@H](CO)C(=O)N[C@@H](Cc1ccccc1)C(=O)N[C@@H](Cc1ccccc1)C(=O)N[C@@H](CCCCN)C(=O)N1CCC[C@H]1C(=O)N1CCC[C@H]1C(=O)N[C@@H](CCC(=O)O)C(N)=O` (Ac-MRLRKLPDSFFKPPE-NH2), the inhibition is 12%.

As for `CSCC[C@H](NC(=O)[C@@H]1CCCN1C(C)=O)C(=O)N[C@@H](CCCNC(=N)N)C(=O)N[C@@H](CC(C)C)C(=O)N[C@@H](CCCNC(=N)N)C(=O)N[C@@H](CCCCN)C(=O)N[C@@H](CC(C)C)C(=O)N1CCC[C@H]1C(=O)N[C@@H](CC(=O)O)C(=O)N[C@@H](CO)C(=O)N[C@@H](Cc1ccccc1)C(=O)N[C@@H](Cc1ccccc1)C(=O)N[C@@H](CCCCN)C(=O)N1CCC[C@H]1C(=O)N1CCC[C@H]1C(=O)N[C@@H](CCC(=O)O)C(N)=O` (Ac-PMRLRKLPDSFFKPPE-NH2), the inhibition was found to be 25%.

Consider `CSCC[C@H](NC(=O)[C@@H]1CCCN1C(=O)[C@H](C)NC(=O)[C@@H](NC(=O)[C@H](CCC(N)=O)NC(=O)[C@@H]1CCCN1C(C)=O)[C@@H](C)O)C(=O)N[C@@H](CCCNC(=N)N)C(=O)N[C@@H](CC(C)C)C(=O)N[C@@H](CCCNC(=N)N)C(=O)N[C@@H](CCCCN)C(=O)N[C@@H](CC(C)C)C(=O)N1CCC[C@H]1C(=O)N[C@@H](CC(=O)O)C(=O)N[C@@H](CO)C(=O)N[C@@H](Cc1ccccc1)C(=O)N[C@@H](Cc1ccccc1)C(=O)N[C@@H](CCCCN)C(=O)N1CCC[C@H]1C(=O)N1CCC[C@H]1C(=O)N[C@@H](CCC(=O)O)C(N)=O` (Ac-PQTAPMRLRKLPDSFFKPPE-NH2), for which the inhibition was 26%.

For `CSCC[C@H](NC(=O)[C@H](C)NC(=O)[C@@H](NC(=O)[C@@H](NC(=O)[C@H](CCC(N)=O)NC(=O)[C@@H]1CCCN1C(C)=O)[C@@H](C)O)C(C)C)C(=O)N[C@@H](CCCNC(=N)N)C(=O)N[C@@H](CC(C)C)C(=O)N[C@@H](CCCNC(=N)N)C(=O)N[C@@H](CCCCN)C(=O)N[C@@H](CC(C)C)C(=O)N1CCC[C@H]1C(=O)N[C@@H](CC(=O)O)C(=O)N[C@@H](CO)C(=O)N[C@@H](Cc1ccccc1)C(=O)N[C@@H](Cc1ccccc1)C(=O)N[C@@H](CCCCN)C(=O)N1CCC[C@H]1C(=O)N1CCC[C@H]1C(=O)N[C@@H](CCC(=O)O)C(N)=O` (Ac-PQTVAMRLRKLPDSFFKPPE-NH2), the inhibition came to 33%.

For the molecule `CC(=O)N1CCC[C@H]1C(=O)N[C@@H](CCC(N)=O)C(=O)N[C@H](C(=O)N[C@H](C(=O)N1CCC[C@H]1C(=O)N[C@@H](C)C(=O)N[C@@H](CCCNC(=N)N)C(=O)N[C@@H](CC(C)C)C(=O)N[C@@H](CCCNC(=N)N)C(=O)N[C@@H](CCCCN)C(=O)N[C@@H](CC(C)C)C(=O)N1CCC[C@H]1C(=O)N[C@@H](CC(=O)O)C(=O)N[C@@H](CO)C(=O)N[C@@H](Cc1ccccc1)C(=O)N[C@@H](Cc1ccccc1)C(=O)N[C@@H](CCCCN)C(=O)N1CCC[C@H]1C(=O)N1CCC[C@H]1C(=O)N[C@@H](CCC(=O)O)C(N)=O)C(C)C)[C@@H](C)O` (Ac-PQTVPARLRKLPDSFFKPPE-NH2), the inhibition was 1.3%.

`CSCC[C@H](NC(=O)[C@@H]1CCCN1C(=O)[C@@H](NC(=O)[C@@H](NC(=O)[C@H](CCC(N)=O)NC(=O)[C@@H]1CCCN1C(C)=O)[C@@H](C)O)C(C)C)C(=O)N[C@@H](C)C(=O)N[C@@H](CC(C)C)C(=O)N[C@@H](CCCNC(=N)N)C(=O)N[C@@H](CCCCN)C(=O)N[C@@H](CC(C)C)C(=O)N1CCC[C@H]1C(=O)N[C@@H](CC(=O)O)C(=O)N[C@@H](CO)C(=O)N[C@@H](Cc1ccccc1)C(=O)N[C@@H](Cc1ccccc1)C(=O)N[C@@H](CCCCN)C(=O)N1CCC[C@H]1C(=O)N1CCC[C@H]1C(=O)N[C@@H](CCC(=O)O)C(N)=O` (Ac-PQTVPMALRKLPDSFFKPPE-NH2): the inhibition amounted to 23%.

Regarding `CSCC[C@H](NC(=O)[C@@H]1CCCN1C(=O)[C@@H](NC(=O)[C@@H](NC(=O)[C@H](CCC(N)=O)NC(=O)[C@@H]1CCCN1C(C)=O)[C@@H](C)O)C(C)C)C(=O)N[C@@H](CCCNC(=N)N)C(=O)N[C@@H](C)C(=O)N[C@@H](CCCNC(=N)N)C(=O)N[C@@H](CCCCN)C(=O)N[C@@H](CC(C)C)C(=O)N1CCC[C@H]1C(=O)N[C@@H](CC(=O)O)C(=O)N[C@@H](CO)C(=O)N[C@@H](Cc1ccccc1)C(=O)N[C@@H](Cc1ccccc1)C(=O)N[C@@H](CCCCN)C(=O)N1CCC[C@H]1C(=O)N1CCC[C@H]1C(=O)N[C@@H](CCC(=O)O)C(N)=O` (Ac-PQTVPMRARKLPDSFFKPPE-NH2), the inhibition is 49%.

For `CSCC[C@H](NC(=O)[C@@H]1CCCN1C(=O)[C@@H](NC(=O)[C@@H](NC(=O)[C@H](CCC(N)=O)NC(=O)[C@@H]1CCCN1C(C)=O)[C@@H](C)O)C(C)C)C(=O)N[C@@H](CCCNC(=N)N)C(=O)N[C@@H](CC(C)C)C(=O)N[C@@H](C)C(=O)N[C@@H](CCCCN)C(=O)N[C@@H](CC(C)C)C(=O)N1CCC[C@H]1C(=O)N[C@@H](CC(=O)O)C(=O)N[C@@H](CO)C(=O)N[C@@H](Cc1ccccc1)C(=O)N[C@@H](Cc1ccccc1)C(=O)N[C@@H](CCCCN)C(=O)N1CCC[C@H]1C(=O)N1CCC[C@H]1C(=O)N[C@@H](CCC(=O)O)C(N)=O` (Ac-PQTVPMRLAKLPDSFFKPPE-NH2), the inhibition was determined as 1.7%.
